From patent publication US7410975B2, “Small molecule toll-like receptor (TLR) antagonists” (Coley Pharmaceutical Group, Inc., priority 2003, dated 2008)
Counter-ions that a name gives are not always drawn.

The compounds below were run against T1, human TLR3 (hTLR3) (Homo sapiens, UniProt O15455) (assay: Antagonist screen, hTLR3-NFκB-293 cells, NF-κB-luciferase reporter, with EC50 of poly(I:C)). Details: compound at 0.5, 5, 50 μg/ml; EC50 concentration of poly(I:C); 16 h; NF-κB-luciferase.
T1 construct: expressed in transfected cells
T1 sequence (O15455 24-904): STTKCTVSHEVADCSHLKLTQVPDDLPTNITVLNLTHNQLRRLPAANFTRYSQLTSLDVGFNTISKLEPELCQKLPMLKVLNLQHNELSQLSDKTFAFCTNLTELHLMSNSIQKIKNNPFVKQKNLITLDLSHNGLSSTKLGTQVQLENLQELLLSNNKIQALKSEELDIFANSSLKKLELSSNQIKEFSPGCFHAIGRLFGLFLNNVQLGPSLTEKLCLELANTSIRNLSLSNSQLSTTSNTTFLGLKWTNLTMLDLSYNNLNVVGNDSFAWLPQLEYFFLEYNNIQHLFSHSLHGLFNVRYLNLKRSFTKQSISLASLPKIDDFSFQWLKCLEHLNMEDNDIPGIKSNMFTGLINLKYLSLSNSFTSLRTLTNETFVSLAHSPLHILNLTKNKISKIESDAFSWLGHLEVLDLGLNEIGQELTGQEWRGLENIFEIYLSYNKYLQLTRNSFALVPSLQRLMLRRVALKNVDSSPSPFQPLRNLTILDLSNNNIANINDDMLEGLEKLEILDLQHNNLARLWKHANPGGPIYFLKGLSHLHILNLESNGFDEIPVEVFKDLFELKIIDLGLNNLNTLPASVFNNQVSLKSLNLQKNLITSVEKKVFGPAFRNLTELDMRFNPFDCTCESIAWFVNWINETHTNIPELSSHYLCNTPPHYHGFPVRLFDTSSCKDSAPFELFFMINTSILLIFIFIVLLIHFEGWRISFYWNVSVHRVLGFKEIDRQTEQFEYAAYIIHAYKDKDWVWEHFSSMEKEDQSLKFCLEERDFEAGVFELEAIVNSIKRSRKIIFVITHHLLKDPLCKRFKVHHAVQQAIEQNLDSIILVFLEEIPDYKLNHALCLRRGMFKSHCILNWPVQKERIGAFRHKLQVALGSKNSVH
Format: cell-based
How it was run: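 Scores reflect clear reduction of NF-κB-luciferase signal versus baseline fold induction from EC50 poly(I:C) alone. Compounds tested in duplicate at three final concentrations (0.5, 5, 50 μg/ml) with ligand for 16 h stimulation of hTLR3-NFκB-293 cells plated overnight at 1.5×10^4 per well.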
In the case of `CN1CCc2cccc3c2[C@H]1Cc1ccc(O)c(O)c1-3.Cl` [compound 101, Apomorphinehydrochloride (R, —)], the “hTLR3 (inhibitory effect, antagonist score)” value was “— (compounds for which there was no clear down regulation even at 50 μg/ml)”.
In the case of `CN1CCc2cc3c(c4c2C1Cc1ccccc1-4)OCO3.Cl` (stereo not shown) [compound 669, Remerine hydrochloride], the “hTLR3 (inhibitory effect, antagonist score)” value was “— (compounds for which there was no clear down regulation even at 50 μg/ml)”.
In the case of `COc1cc2nc(N3CCN(C(=O)C4CCCO4)CC3)nc(N)c2cc1OC.Cl` (stereo not shown) [compound 751, Terazosin hydrochloride], the “hTLR3 (inhibitory effect, antagonist score)” value was “— (compounds for which there was no clear down regulation even at 50 μg/ml)”.
For `CN(C)C(=O)C(CCN1CCC(O)(c2ccc(Cl)cc2)CC1)(c1ccccc1)c1ccccc1` [compound 144, Loperamidehydrochloride], the “hTLR3 (inhibitory effect, antagonist score)” value was 11 (compounds for which there was clear down regulation only at 50 μg/ml).
With `CCN(CC)CCCNc1nc(-c2ccccc2)nc2ccccc12` [compound 2001] the “hTLR3 (inhibitory effect, antagonist score)” value was 11 (compounds for which there was clear down regulation only at 50 μg/ml).
`COc1cc2nc(N3CCN(C(=O)C4COc5ccccc5O4)CC3)nc(N)c2cc1OC.CS(=O)(=O)O` (stereo not shown) [compound 858, Doxazosin mesylate] was tested, and the “hTLR3 (inhibitory effect, antagonist score)” value was “— (compounds for which there was no clear down regulation even at 50 μg/ml)”.
With `COc1cc2c(cc1O)C[C@H]1c3c(cc(O)c(OC)c3-2)CCN1C` [compound 600, Boldine] the “hTLR3 (inhibitory effect, antagonist score)” value was “— (compounds for which there was no clear down regulation even at 50 μg/ml)”.
In the case of `CC(C)(C)c1ccc(C(O)CCCN2CCC(C(O)(c3ccccc3)c3ccccc3)CC2)cc1` (stereo not shown) [compound 138, Terfenadine], the “hTLR3 (inhibitory effect, antagonist score)” value was 11 (compounds for which there was clear down regulation only at 50 μg/ml).
`CCN(CC)CCCC(C)Nc1nc(/C=C/c2ccc(Cl)cc2)nc2cc3ccccc3cc12` (stereo not shown) [compound 2000] was tested, and the “hTLR3 (inhibitory effect, antagonist score)” value was 12 (compounds for which there was clear down regulation at 5 μg/ml and 50 μg/ml).

Same assay, conditions: hTLR3-NFκB-293 cells, with EC50 of poly(I:C); compound at 0.5, 5 and 50 μg/ml
For `CN1CCc2c1nc1ccccc1c2NC(=O)CN1CCN(c2ccccc2)CC1` [compound 1212], the “hTLR3 (inhibitory effect)” value was “— (compounds for which there was no clear down regulation even at 50 μg/ml)”.
For `COc1ccc(Cc2nccc3cc(OC)c(OC)cc23)cc1OC.Cl` [compound 583, Papaverinehydrochloride], the “hTLR3 (inhibitory effect)” value was “— (compounds for which there was no clear down regulation even at 50 μg/ml)”.
`O=C1c2ccc(Oc3ccc(S(=O)(=O)c4ccc(Oc5ccc6c(c5)C(=O)N(c5ccccn5)C6=O)cc4)cc3)cc2C(=O)N1c1ccccn1` [compound 1367] was tested, and the “hTLR3 (inhibitory effect)” value was 12 (compounds for which there was clear down regulation at 5 μg/ml and 50 μg/ml).
With `COc1cc2cc3c4cc(OC)c(OC)cc4cc[n+]3c(C)c2cc1OC` [compound 431, Coralyne chloridehydrate] the “hTLR3 (inhibitory effect)” value was “— (compounds for which there was no clear down regulation even at 50 μg/ml)”.
In the case of `CN1CCc2c1nc1ccc(Br)cc1c2N` [compound 1142, 6-Bromo-1-methyl-2,3-dihydro-1H-pyrrolo[2,3-b]quinolin-4-ylamine], the “hTLR3 (inhibitory effect)” value was 11 (compounds for which there was clear down regulation only at 50 μg/ml).
`O=c1c2c(nc(NCCO)n1-c1ccccc1)-c1ccccc1CC21CCCC1` [compound 891] was tested, and the “hTLR3 (inhibitory effect)” value was 11 (compounds for which there was clear down regulation only at 50 μg/ml).
For `O=c1c2c(nc(NCCO)n1Cc1ccccc1)-c1ccccc1CC21CCCC1` [compound 926], the “hTLR3 (inhibitory effect)” value was 12 (compounds for which there was clear down regulation at 5 μg/ml and 50 μg/ml).
`COc1ccc2cc3[n+](cc2c1OC)CCc1cc2c(cc1-3)OCO2.[Cl-]` [compound 586, Berberine chloride] was tested, and the “hTLR3 (inhibitory effect)” value was 11 (compounds for which there was clear down regulation only at 50 μg/ml).
For `O=C1c2ccc(S(=O)(=O)c3ccc4c(c3)C(=O)N(c3ccccn3)C4=O)cc2C(=O)N1c1ccccn1` [compound 1163], the “hTLR3 (inhibitory effect)” value was 11 (compounds for which there was clear down regulation only at 50 μg/ml).
For `Cc1ccc2nc3c(c(N)c2c1)CCN3C` [compound 1091, 1,6-Dimethyl-2,3-dihydro-1H-pyrrolo[2,3-b]quinolin-4-ylamine], the “hTLR3 (inhibitory effect)” value was 11 (compounds for which there was clear down regulation only at 50 μg/ml).
In the case of `CN(C)CCN(Cc1ccc(Cl)cc1)c1ccccn1.Cl` [compound 807, Chloro-pyraminehydrochloride], the “hTLR3 (inhibitory effect)” value was “— (compounds for which there was no clear down regulation even at 50 μg/ml)”.
For `CN1CCc2c1nc1ccccc1c2NC(=O)CN1CCCCCC1` [compound 1003], the “hTLR3 (inhibitory effect)” value was 11 (compounds for which there was clear down regulation only at 50 μg/ml).
For `NNc1nc2c(c(=O)n1C1CCCC1)C1(CCCC1)Cc1ccccc1-2` [compound 1248], the “hTLR3 (inhibitory effect)” value was “— (compounds for which there was no clear down regulation even at 50 μg/ml)”.
In the case of `CN1CCc2c1nc1ccccc1c2N` [compound 990, 1-Methyl-2,3-dihydro-1H-pyrrolo[2,3-b]quinolin-4-ylamine], the “hTLR3 (inhibitory effect)” value was “— (compounds for which there was no clear down regulation even at 50 μg/ml)”.
`CCCCCCCCCCCC(=O)Nc1c2c(nc3ccccc13)N(C)CC2` [compound 1334] was tested, and the “hTLR3 (inhibitory effect)” value was “— (compounds for which there was no clear down regulation even at 50 μg/ml)”.
`O=c1[nH]c(NCCO)nc2c1C1(CCCC1)Cc1ccccc1-2` [compound 1322] was tested, and the “hTLR3 (inhibitory effect)” value was 11 (compounds for which there was clear down regulation only at 50 μg/ml).
`Cc1ccc(-n2c(NCCO)nc3c(c2=O)C2(CCCCC2)Cc2ccccc2-3)cc1` [compound 1137] was tested, and the “hTLR3 (inhibitory effect)” value was 13 (compounds for which there was clear down regulation at 0.5 μg/ml, 5 μg/ml, and 50 μg/ml).
In the case of `NNc1nc2c(c(=O)n1-c1ccccc1)C1(CCCC1)Cc1ccccc1-2` [compound 1320], the “hTLR3 (inhibitory effect)” value was “— (compounds for which there was no clear down regulation even at 50 μg/ml)”.
For `Nc1c2c(nc3ccccc13)N(Cc1ccccc1)CC2` [compound 1217, 1-Benzyl-2,3-dihydro-1H-pyrrolo[2,3-b]quinolin-4-ylamine], the “hTLR3 (inhibitory effect)” value was 12 (compounds for which there was clear down regulation at 5 μg/ml and 50 μg/ml).
In the case of `O=C(CN1CCCC1)Nc1c2c(nc3ccccc13)N(c1ccccc1)CC2` [compound 1244], the “hTLR3 (inhibitory effect)” value was 11 (compounds for which there was clear down regulation only at 50 μg/ml).
For `CC[N+](C)(CC)CCC[n+]1c(-c2ccccc2)c2cc(N)ccc2c2ccc(N)cc21.[I-].[I-]` [compound 792, Propidium iodide], the “hTLR3 (inhibitory effect)” value was 12 (compounds for which there was clear down regulation at 5 μg/ml and 50 μg/ml).
`CCCCCCN(CCCCCC)CC(=O)Nc1c2c(nc3ccccc13)N(C)CC2` [compound 1224] was tested, and the “hTLR3 (inhibitory effect)” value was 12 (compounds for which there was clear down regulation at 5 μg/ml and 50 μg/ml).
For `CN1CCCCc2c1nc1ccccc1c2N` [compound 1185, 1-Methyl-2,3,4,5-tetrahydro-1H-azepino[2,3-b]quinolin-6-ylamine], the “hTLR3 (inhibitory effect)” value was “— (compounds for which there was no clear down regulation even at 50 μg/ml)”.
For `Cn1c(NN)nc2c(c1=O)C1(CCCC1)Cc1ccccc1-2` [compound 1213], the “hTLR3 (inhibitory effect)” value was “— (compounds for which there was no clear down regulation even at 50 μg/ml)”.
In the case of `CCOc1ccc(Cc2nccc3cc(OCC)c(OCC)cc23)cc1OCC.Cl` [compound 830, Ethaverinehydrochloride], the “hTLR3 (inhibitory effect)” value was “— (compounds for which there was no clear down regulation even at 50 μg/ml)”.
